Results on four molecules are retold here after patent publication US20170209408A1, “HSP90 INHIBITORS FOR THE TREATMENT OF OBESITY AND METHODS OF USE THEREOF” (The Children's Medical Center Corporation, priority 2014, published 2017).

The conditions of data set [1]: rating from cited sources, cited from earlier work.
Another data set concerns lean mice. In words: Body weight and food intake in 10-week old lean mice on chow diet, i.p. injection. In kind it is in vivo. Conditions: three weeks. On the procedure:
Gambogic acid was administered to 10-week old lean mice on chow diet at 0.5 mg/kg for three weeks by i.p. injections. […] Tanespimycin was administered to 10-week old lean mice on chow diet at 15 mg/kg for three weeks by i.p. injections. […] NVP-AUY922 was administered to 10-week old lean mice on chow diet at 15 mg/kg for three weeks by i.p. injections.

Another data set relates to HFD-fed obese mice. Put plainly: Body weight and food intake in high fat diet (HFD)-fed obese mice, daily i.p. injection. The class given is in vivo, C57Bl/6J mice. The settings on record: three weeks, vs DMSO vehicle. On the procedure:
To investigate whether gambogic acid can act as an anti-obesity drug by increasing leptin sensitivity and reducing appetite, C57Bl/6J mice were placed on a high fat diet (HFD; Research Diets, D12451, 45 kcal % fat) feeding for 16 weeks. After establishment of obesity and leptin resistance, mice were administered gambogic acid (at 0.5 mg/kg, in 25 μl DMSO, once per day) and vehicle (DMSO, 25 μl) with intraperitoneal (i.p.) injection. The animals had free access to food and water unless otherwise stated. In all experiments, three days prior to drug administration, the animals went through an acclimation period where they were given DMSO (25 μl) to reduce the effect of stress created by i.p. injection. Following three days acclimation, mice were administered gambogic acid daily i.p. injections at 0.5 mg/kg for three weeks in 25 μl of DMSO as vehicle, whereas the control group received the same volume of DMSO. […] To investigate whether tanespimycin can act as an anti-obesity drug by increasing leptin sensitivity and reducing appetite, C57Bl/6J mice were placed on a high fat diet (HFD; Research Diets, D12451, 45 kcal % fat) feeding for 16 weeks. After establishment of obesity and leptin resistance, mice were administered tanespimycin (at 15 mg/kg, in 25 μl DMSO, once per day) and vehicle (DMSO, 25 μl) with intraperitoneal (i.p.) injection. The animals had free access to food and water unless otherwise stated. In all experiments, three days prior to drug administration, the animals went through an acclimation period where they were given DMSO (25 μ1) to reduce the effect of stress created by i.p. injection. Following three days acclimation, mice were administered tanespimycin daily i.p. injections at 15 mg/kg for three weeks in 25 μl of DMSO as vehicle, whereas the control group received the same volume of DMSO. […] To investigate whether NVP-AUY922 can act as an anti-obesity drug by increasing leptin sensitivity and reducing appetite, C57Bl/6J mice were placed on a high fat diet (HFD; Research Diets, D12451, 45 kcal % fat) feeding for 16 weeks. After establishment of obesity and leptin resistance, mice were administered NVP-AUY922 (at 15 mg/kg, in 25 μl DMSO, once per day) and vehicle (DMSO, 25 μl) with intraperitoneal (i.p.) injection. The animals had free access to food and water unless otherwise stated. In all experiments, three days prior to drug administration, the animals went through an acclimation period where they were given DMSO (25 μ1) to reduce the effect of stress created by i.p. injection. Following three days acclimation, mice were administered NVP-AUY922 daily i.p. injections at 15 mg/kg for three weeks in 25 μl of DMSO as vehicle, whereas the control group received the same volume of DMSO.

The test system of data set [2] is leptin receptor deficient (db/db) mice. Put plainly: Body weight and food intake in leptin receptor deficient (db/db) mice. In kind it is in vivo. The settings on record: 0.5 mg/kg once a day. On the procedure:
To explore whether gambogic acid's effect is leptin dependent, gambogic acid (0.5 mg/kg, once a day, in 25μ1 DMSO) was administered to leptin receptor deficient (db/db) mice.

[3] abbreviates: 0.5 mg/kg i.p. once per day, 0.5 mg/kg.

“Also recorded” adds a separate entry of the source.

For `[Cr]` [Chromium], in data set [1], the Safety entry was “Likely safe”.
As to `CCNC(=O)c1noc(-c2cc(C(C)C)c(O)cc2O)c1-c1ccc(CN2CCOCC2)cc1` [NVP-AUY922], in the data set with lean mice (15 mg/kg i.p.), the food intake entry was “failed to induce bodyweight loss or food intake”. The body weight entry with lean mice (15 mg/kg i.p., 15 mg/kg) is “little or no decrease; also recorded: failed to induce bodyweight loss”; with HFD-fed obese mice (15 mg/kg i.p. once per day), “significantly decreased”.
As for `CC(C)=CCC[C@]1(C)C=Cc2c(O)c3c(c(CC=C(C)C)c2O1)O[C@]12C(=C[C@@H]4C[C@H]1C(C)(C)O[C@@]2(C/C=C(/C)C(=O)O)C4=O)C3=O` [gambogic acid], the body weight entry in the data set on lean mice (0.5 mg/kg i.p., 0.5 mg/kg) is on record as “little or no decrease; also recorded: failed to induce bodyweight loss”; in the data set with HFD-fed obese mice (setting [3]), “significantly decreased; also recorded: decreased body weight”; in data set [2] (0.5 mg/kg), “continued to increase similar to the vehicle treated group; also recorded: not in db/db mice”. Also, the food intake entry is on record as “failed to induce bodyweight loss or food intake” in the data set with lean mice (0.5 mg/kg i.p., 0.5 mg/kg); “little or no effect” in the data set with lean mice (0.5 mg/kg i.p., listed as SR-03, 0.5 mg/kg); “significantly decreased” in the data set with HFD-fed obese mice (setting [3]); “significant decrease” in the data set with HFD-fed obese mice (0.5 mg/kg i.p. once per day, listed as SR-03, 0.5 mg/kg); “continued to increase similar to the vehicle treated group” in data set [2].
As for Conjugated linoleic acid, the Safety result in data set [1] was “Possibly safe”. Besides, the Effectiveness result in data set [1] (weight loss) was “Possibly effective”.
